According to US20050019308A1, “Oncolytic viruses for the treatment of neoplasms having activated PP2A or Rac” (Oncolytics Biotech Inc., priority 2003, published 2005):

Columns and labels:
PKR = PKR phosphorylation in cells transformed with v-erbB in the presence of selective phosphatase inhibitors; format: cell-based; details: in the presence of the inhibitor
Text: (§1) PKR is not phosphorylated (i.e., […]) in cells transformed with elements of the ras pathway, such as v-erbB. To determine whether serine-threonine phosphatases are responsible for the lack of phosphorylation of PKR in these cells, selective inhibitors of the phosphatases are employed to assess the role of each phosphatase. […] Inhibitors specific for PP1 or PP2C have no effects on PKR phosphorylation.

PP2B = details: cited from earlier work
PP1 = details: cited from earlier work
reovirus = assay: Susceptibility of phosphatase inhibitor-treated transformed cells to reovirus infection; format: cell-based; details: okadaic acid-treated cells
Text: as §1

PP2A = details: cited from earlier work

C=C1[C@@H](O)[C@@H]2O[C@]3(CC[C@H](/C=C/[C@@H](C)[C@@H]4CC(C)=C[C@@]5(O[C@H](C[C@@](C)(O)C(=O)O)CC[C@H]5O)O4)O3)CC[C@H]2O[C@@H]1[C@@H](O)C[C@H](C)[C@H]1O[C@@]2(CCCCO2)CC[C@H]1C [okadaic acid]
effect on PKR phosphorylation (PKR): PKR becomes phosphorylated
effectiveness against phosphatase (PP2B): only marginally against PP2B
effectiveness against phosphatase (PP1): less so against PP1
susceptibility of treated cells to reovirus infection (reovirus): become susceptible to reovirus infection
effectiveness against phosphatase (PP2A): most effective against PP2A
